{"source": "patent US9108920B2", "about": "“Diazeniumdiolate heterocyclic derivatives” (Merck Sharp & Dohme Corp., priority 2010, dated 2015)", "tested_on": "Male beagle dogs", "test": "canine telemetry protocol, blood pressure reduction efficacy", "format": "in vivo", "details": "change from baseline, 3 mg/kg oral gavage; for ΔPP (mm Hg) 1-6 h / ΔPP (mm Hg) 6-12 h / ΔPP (mm Hg) 12-18 h: pulse pressure; for ΔSBP (mm Hg) 1-6 h / ΔSBP (mm Hg) 6-12 h / ΔSBP (mm Hg) 12-18 h: systolic blood pressure", "protocol": "Compounds of the invention were evaluated for blood pressure reduction efficacy using the following canine telemetry protocol described below.\nMale beagle dogs (approximately 1-3 years old) with a body weight of between 10 and 16 kg were surgically implanted with DSI radiotelemetry devices (model: TL11M2-D70-PCT). Briefly, under an inhalant anesthesia, isoflurane/oxygen mixture (1-3.5%/to effect), the body of the telemetry device was positioned and secured intra-abdominally. Subsequently, the arterial catheter of the telemetry device was passed subcutaneously to the inguinal area and introduced into the femoral artery and advanced to the level of the descending aorta. The catheter was secured with 2-0 silk ligatures. The muscle and underlying fascia was closed over the catheter using absorbable suture and the skin was closed using non-absorbable suture. The animals were allowed a minimum recovery period of 2 weeks between surgery and the evaluation of test compounds.\nCompound evaluation consisted of a 3 day paradigm at a 3 mg/kg dose. On the first day, no compounds were administered during a 24 hour period of baseline data collection. Blood pressure and heart rate data were collected continuously for one minute periods at 10 minute intervals. On the days of compound administration half the animals received test article with the other half receiving the vehicle used for compound formulation. All test materials were administered by oral gavage in a volume of 1 mL/kg. Data are expressed either as raw values (mm Hg or beats per minute) or as the change from baseline (average value for about 12 hours in low activity period prior to dosing).", "data": [{"compound": "CN(/[N+]([O-])=N/O[C@@H]1CCN(C(=O)OC(C)(C)C)C1)C(C)(C)C", "note": "[Example 1, O^2-[(3R)-1-(tert-butoxycarbonyl)pyrrolidin-3-yl]1-(N-tert-butyl-N-methylamino)diazen-1-ium-1,2-diolate]", "values": [{"measurement": "ΔPP (mm Hg) 1-6 h", "value": "−16", "unit": "mm Hg"}, {"measurement": "ΔPP (mm Hg) 6-12 h", "value": "−17", "unit": "mm Hg"}, {"measurement": "ΔPP (mm Hg) 12-18 h", "value": "−15", "unit": "mm Hg"}, {"measurement": "ΔSBP (mm Hg) 1-6 h", "value": "−16", "unit": "mm Hg"}, {"measurement": "ΔSBP (mm Hg) 6-12 h", "value": "−15", "unit": "mm Hg"}, {"measurement": "ΔSBP (mm Hg) 12-18 h", "value": "−11", "unit": "mm Hg"}]}, {"compound": "CCN(/[N+]([O-])=N/OC1CCN(C(=O)OC(C)(C)C)CC1)C(C)(C)C", "note": "[Example 6, O^2-[1-(tert-butoxycarbonyl)piperidin-4-yl]1-(N-tert-butyl-N-ethylamino)diazen-1-ium-1,2-diolate]", "values": [{"measurement": "ΔPP (mm Hg) 1-6 h", "value": "−19", "unit": "mm Hg"}, {"measurement": "ΔPP (mm Hg) 6-12 h", "value": "−17", "unit": "mm Hg"}, {"measurement": "ΔPP (mm Hg) 12-18 h", "value": "−15", "unit": "mm Hg"}, {"measurement": "ΔSBP (mm Hg) 1-6 h", "value": "−25", "unit": "mm Hg"}, {"measurement": "ΔSBP (mm Hg) 6-12 h", "value": "−16", "unit": "mm Hg"}, {"measurement": "ΔSBP (mm Hg) 12-18 h", "value": "−9", "unit": "mm Hg"}]}, {"compound": "CN(/[N+]([O-])=N/O[C@@H]1CCN(Cc2ccccc2)C1)C(C)(C)C", "note": "[Example 28, O^2-[(3R)-1-benzylpyrrolidin-3-yl]1-(N-tert-butyl-N-methylamino)diazen-1-ium-1,2-diolate]", "values": [{"measurement": "ΔPP (mm Hg) 1-6 h", "value": "−12", "unit": "mm Hg"}, {"measurement": "ΔPP (mm Hg) 6-12 h", "value": "−10", "unit": "mm Hg"}, {"measurement": "ΔPP (mm Hg) 12-18 h", "value": "−5", "unit": "mm Hg"}, {"measurement": "ΔSBP (mm Hg) 1-6 h", "value": "−21", "unit": "mm Hg"}, {"measurement": "ΔSBP (mm Hg) 6-12 h", "value": "−14", "unit": "mm Hg"}, {"measurement": "ΔSBP (mm Hg) 12-18 h", "value": "−7", "unit": "mm Hg"}]}, {"compound": "CCN(/[N+]([O-])=N/O[C@@H]1CCN(CC(F)(F)F)C1)C(C)(C)C", "note": "[Example 32, O^2-[(3R)-1-(2,2,2-trifluoroethyl)pyrrolidin-3-yl]-1-(N-tert-butyl-N-ethylamino)diazen-1-ium-1,2-diolate]", "values": [{"measurement": "ΔPP (mm Hg) 1-6 h", "value": "−23", "unit": "mm Hg"}, {"measurement": "ΔPP (mm Hg) 6-12 h", "value": "−15", "unit": "mm Hg"}, {"measurement": "ΔPP (mm Hg) 12-18 h", "value": "−10", "unit": "mm Hg"}, {"measurement": "ΔSBP (mm Hg) 1-6 h", "value": "−32", "unit": "mm Hg"}, {"measurement": "ΔSBP (mm Hg) 6-12 h", "value": "−16", "unit": "mm Hg"}, {"measurement": "ΔSBP (mm Hg) 12-18 h", "value": "−5", "unit": "mm Hg"}]}, {"compound": "CCN(/[N+]([O-])=N/OC1CCN(c2ccc(C#N)cn2)CC1)C(C)(C)C", "note": "[Example 48, O^2-[1-(5-cyanopyridin-2-yl)piperidin-4-yl]1-(N-tert-butyl-N-ethylamino)diazen-1-ium-1,2-diolate]", "values": [{"measurement": "ΔPP (mm Hg) 1-6 h", "value": "−17", "unit": "mm Hg"}, {"measurement": "ΔPP (mm Hg) 6-12 h", "value": "−16", "unit": "mm Hg"}, {"measurement": "ΔPP (mm Hg) 12-18 h", "value": "−15", "unit": "mm Hg"}, {"measurement": "ΔSBP (mm Hg) 1-6 h", "value": "−16", "unit": "mm Hg"}, {"measurement": "ΔSBP (mm Hg) 6-12 h", "value": "−12", "unit": "mm Hg"}, {"measurement": "ΔSBP (mm Hg) 12-18 h", "value": "−11", "unit": "mm Hg"}]}, {"compound": "CCN(/[N+]([O-])=N/O[C@@H]1CCN(C(=O)NC(C)(C)C)C1)C(C)(C)C", "note": "[Example 59, O^2-[(3R)-1-(tert-butylcarbamoyl)pyrrolidin-3-yl]1-(N-tert-butyl-N-ethylamino)diazen-1-ium-1,2-diolate]", "values": [{"measurement": "ΔPP (mm Hg) 1-6 h", "value": "−17", "unit": "mm Hg"}, {"measurement": "ΔPP (mm Hg) 6-12 h", "value": "−16", "unit": "mm Hg"}, {"measurement": "ΔPP (mm Hg) 12-18 h", "value": "−15", "unit": "mm Hg"}, {"measurement": "ΔSBP (mm Hg) 1-6 h", "value": "−19", "unit": "mm Hg"}, {"measurement": "ΔSBP (mm Hg) 6-12 h", "value": "−18", "unit": "mm Hg"}, {"measurement": "ΔSBP (mm Hg) 12-18 h", "value": "−17", "unit": "mm Hg"}]}, {"compound": "O^2-[(3R)-1-(3-methoxyphenyl)-2-oxopyrrolidin-3-yl]1-(N-tert-butyl-N-methylamino)diazen-1-ium-1,2-diolate [Example 64]", "values": [{"measurement": "ΔPP (mm Hg) 1-6 h", "value": "−12", "unit": "mm Hg"}, {"measurement": "ΔPP (mm Hg) 6-12 h", "value": "−15", "unit": "mm Hg"}, {"measurement": "ΔPP (mm Hg) 12-18 h", "value": "−13", "unit": "mm Hg"}, {"measurement": "ΔSBP (mm Hg) 1-6 h", "value": "−13", "unit": "mm Hg"}, {"measurement": "ΔSBP (mm Hg) 6-12 h", "value": "−12", "unit": "mm Hg"}, {"measurement": "ΔSBP (mm Hg) 12-18 h", "value": "−11", "unit": "mm Hg"}]}]}
